Data taken from publication PMC9654333, “AmyP53, a Therapeutic Peptide Candidate for the Treatment of Alzheimer’s and Parkinson’s Disease: Safety, Stability, Pharmacokinetics Parameters and Nose-to Brain Delivery” (International Journal of Molecular Sciences, 2022).
Several values for one entry are separate records, joined by “and”; a condition that tells them apart may be missing. Identical values can stand only once. Entries after “also recorded” stand apart in the source; their conditions may differ. Like-named read-outs stand apart in the source and are kept apart here. Ends that are not written are not given here.

Experiments:
[1] = design: method as in PMID 22963731, PMID 23444784, PMID 33551991, PMID 17720549, PMID 15728733; details: therapeutic peptides delivered to the brain via the intranasal route; cited from earlier work
[2] = Chemical stability of aqueous solution upon storage (LC–MS); format: physicochemical; details: 1 mM in pure water, stored 18 months at 4 °C, 20 °C and 45 °C
Procedure: AmyP53 samples (1 mM in water) were stored at 4 °C, 20 °C, and 45 °C in sealed Eppendorf tubes and analyzed at different time points for chemical integrity (LC-MS method) and biological activity (binding to ganglioside GM1). For calibration, different dilutions of the standard solution were injected three times, and the peak area was measured for all three. […] The percentage of recovery was >98%, in full agreement with the certificate analysis of AmyP53 batch # #P190628-LL735654. LC–MS linearity was observed over the 5–100 pmol injected range (R^2 > 0.99). The minimal amount detected was 5 pmol.

[3] = In vitro stability in rat whole blood (LC–MS); format: in vitro ADME
Procedure: (§1) Supernatants were stored at −20 °C before analysis.
(§2) AmyP53 in water solution (300 µM) was mixed with rat blood (obtained from Syncrosome, Marseille, France), or commercial human serum (Sigma-Aldrich, St. Louis, MO, USA). AmyP53 concentrations were then determined by LC–MS at the indicated times after extraction, as detailed above.

[4] = In vitro stability in commercial human serum (LC–MS); format: in vitro ADME
Procedure: as §1, §2

[5] = system: bEnd.3 murine endothelial cells (bEnd.3/C6 co-cultures); assay: Transport through in vitro reconstituted blood–brain barrier (two-compartment chamber); format: in vitro ADME, mouse; details: for Transendothelial transport through the blood–brain barrier: bEnd.3/C6 model, donor basal to acceptor apical compartment
Procedure: An in vitro model of the blood–brain barrier was reconstituted with bEnd.3 murine endothelial cells obtained from the American Type Culture Collection (ATCC, Manassas, VA, USA) ref. bEnd.3 [BEND3] (ATCC CRL-2299). These cells were cultured in chambers with two compartments separated by a filter with a porosity of 0.4 µm (Corning-Transwell, Dominique Dutscher, Bernolsheim, France). The cells were seeded at a density of 50,000 cells per individual filter and cultured in a growth medium containing 10% fetal calf serum. After an initial spreading step, the bEnd.3 cells colonized the entire surface available on the filter, thus reconstituting a functional endothelium. At this stage, the cells established tight junctions preventing the passage of molecules and ions. In order to improve the differentiation of bEnd.3 cells, we also set up two coculture systems: [bEnd.3 + astrocytes (CTX cells)] and [bEnd.3 + glioma (C6 cells)]. In these cases, the glial cells were seeded in the basal compartment (non-contact model) and co-cultured for 6 days before using bEnd.3 cell monolayers for transport experiments. The impermeability of each of these cellular barriers was assessed by transendothelial resistance measurements with a Voltmeter-Ohmmeter Millicell-ERS (Merck-Millipore, Burlington, MA, USA). […] All experiments were performed 6 times.

[6] = rat, in vivo
Text: (§3) Male and female Sprague Dawley rats, 6 weeks old at receipt, weighing around 300 g at the beginning of the experiments were used for pharmacokinetics studies. The animals that were included in these experiments were naïve to the previous administration of drugs. The acclimatization of rats lasted at least 5 days. Animals had free access to food (RM1, SDS Dietex) and drinking water ad libitum. […] The protocol used by Syncrosome was approved by an Animal Ethical Committee (French National Committee N°71) and by the Higher Education and Research Ministry (#2015070314429284_v2). […] Every effort was done to minimize animal suffering and to reduce the number of animals used in the experiments in compliance with the ARRIVE guidelines.
(§4) One compound formulation at one dose for each route of administration was tested during the present study. The data were treated with the PKsolver add-in of Excel [125].
(§5) Anesthetized (ketamine/medetomidine or isoflurane 4% for induction and then 2.5%) rats were treated intravenously once. The final volume of administration was 0.5 mL/kg (100 mg/kg body weight). As soon as the administration was performed (t0), a timer was started.
(§6) A catheter was introduced into each nostril of the rat with a depth of 7 mm [126]. Anesthetized (ketamine/medetomidine or isoflurane 4% for induction and then 2.5%) rats were treated once. The volume of administration was 10 μL/nostril (20 μL per rat, 12 mg/kg body weight). As soon as the administration was performed (t0), a timer was started.
(§7) Blood samples of 2 mL were collected through direct intracardiac puncture and separated on two K3-EDTA Greiner Bio-One tubes of 1 mL (ref. 454034A, Dominique Dutscher, Bernolsheim, France). A 100× solution of protease inhibitors (ref. 1862209, ThermoScientific, Waltham, MA, USA) was added immediately after sampling (10 μL/tube). The first tube of the blood sample was then separated in 2 samples with different procedures (with and without sonication) and the other one was used for plasma preparation.
(§8) Brains were collected immediately after blood collection, split in 2 hemispheres, and then transferred into Eppendorf tubes. Brain samples were placed into crushed dry ice for several minutes and frozen at −80 °C. When indicated, the rats were transcardially perfused with a solution of phosphate-buffered saline (PBS) for 10 min with a flow rate of 40 mL/min to remove blood in the brain tissue. A subcutaneous administration of buprenorphine (0.03 mg/kg) was performed at least 30 min prior to transcardial perfusion.
(§9) For blood and serum stability and for pharmacokinetics studies, blood and plasma samples (200 µL) were incubated with 3 volumes of methanol for 30 min at 4 °C and then centrifuged at 4 °C for 5 min (16,000× g). Supernatants were stored at −20 °C before analysis. Brain homogenates were prepared at 4 °C in PBS containing 1 mM EDTA and protease inhibitors (ref. 1862209, ThermoScientific, Waltham, MA, USA) in a glass Potter homogenizer. Homogenate samples (600 µL) were incubated with 3 volumes of methanol for 30 min at 4 °C and centrifuged at 4 °C for 5 min (16,000× g). Supernatants were evaporated under nitrogen flux and then diluted in 100 µL of 0.1% formic acid in water.
(§10) The concentrations of intact AmyP53 in biological samples were determined by liquid chromatography–mass spectrometry (Acquity iClass-Vion LC-MS; Waters, Guyancourt, France).

in vivo = details: both, Sprague Dawley, rat, 12 mg/kg
Text: as §3, §4, §5, §6, §7, §8, §9, §10

[7] = cited from earlier work
[8] = Toxicology study, repeated intranasal administration over 7 days; details: for Behavior (Days 1–7) / Brain Histology / Inflammation at Nostrils / Body Weight (Day 7): rat; for Body Weight (Day 7): mean ± SEM, in g (unit assumed)
Procedure: Male and female Wistar rats (4 animals per group) were treated with the indicated dose of AmyP53, and toxicology studies were conducted as previously described [75]. Statistical analysis was performed with the Kruskal–Wallis test.

[9] = Pharmacokinetics in rat blood and brain after intranasal or intravenous administration
Text: as §3, §4, §5, §6, §7, §8, §9, §10

EPO: therapeutic peptide delivered to the brain via the intranasal route, 165 aa
pHi [1]: 8.7

KEGVLYVGHHTK [AmyP53]
Chemical stability in water solution [2]: remains chemically intact over 18 months; also recorded: remained remarkably stable under all these conditions
half-life at 300 µM ([3]; rat fresh whole blood, read-out: Half-life time): 17 min
Detection after incubation ([3]; rat whole blood, 300 µM, 60 min): still detected after 60 min
half-life at 300 µM ([4]; commercial human serum, read-out: Half-life time): 5 min
Detection after incubation ([4]; human serum, 300 µM, 30 min): no longer detected in serum after 30 min
Transendothelial transport through the blood–brain barrier [5]: almost as effective as synB3 and more than synB5; also recorded: at least as efficiently as syn B3 and even more than syn B5
Transendothelial resistance during incubation ([5]; reconstituted blood–brain barrier, incubation with AmyP53): remained unchanged
Tmax ([6]; both, Sprague Dawley, 12 mg/kg): 5 min
AmyP53 reaching the brain [6]: 1.57%
Efficiency of nose-to-brain delivery versus blood circulation [6]: 7.85 fold
Tmax (in vivo): 10 min
solubility (physchem): > 146000 µM and > 200000 µg/mL
Inflammatory reaction in the nostrils and the tails ([7]; AmyP53-treated rats): no inflammatory reaction could be observed
Tolerance ([7]; rats, administered intravenously or intranasally): perfect tolerance
Undesirable effects ([7]; rats, intranasal administration, doses up to 5 mg/kg body weight): no undesirable effect could be detected
Undesirable effects ([7]; rats, intravenous administration, doses up to 80 mg/kg): no undesirable effect could be detected
Toxicology findings after repeated intranasal injections ([8]; male and female Wistar rats, doses up to 5 mg/kg body weight, 7-day period): no mortality, no behavioral changes, no body weight loss, and no alterations of brain tissue at autopsy
Behavior (Days 1–7) ([8]; female, intranasal 0.2 mg/kg): NTR NTR
Brain Histology ([8]; female, intranasal 0.2 mg/kg): NTR NTR
Inflammation at Nostrils ([8]; female, intranasal 0.2 mg/kg every two days during 7 days): No No
Body Weight (Day 7) ([8]; female, intranasal 0.2 mg/kg): 189.46 ± 15.15
Behavior (Days 1–7) ([8]; female, intranasal 1.0 mg/kg): NTR NTR
Brain Histology ([8]; female, intranasal 1.0 mg/kg): NTR NTR
Inflammation at Nostrils ([8]; female, intranasal 1.0 mg/kg every two days during 7 days): No No
Body Weight (Day 7) ([8]; female, intranasal 1.0 mg/kg): 191.03 ± 3.13
Behavior (Days 1–7) ([8]; female, intranasal 5.0 mg/kg): NTR NTR
Brain Histology ([8]; female, intranasal 5.0 mg/kg): NTR NTR
Inflammation at Nostrils ([8]; female, intranasal 5.0 mg/kg every two days during 7 days): No No
Body Weight (Day 7) ([8]; female, intranasal 5.0 mg/kg): 185.70 ± 5.77
Behavior (Days 1–7) ([8]; male, intranasal 0.2 mg/kg): NTR NTR
Brain Histology ([8]; male, intranasal 0.2 mg/kg): NTR NTR
Inflammation at Nostrils ([8]; male, intranasal 0.2 mg/kg every two days during 7 days): No No
Body Weight (Day 7) ([8]; male, intranasal 0.2 mg/kg): 248.94 ± 8.51
Behavior (Days 1–7) ([8]; male, intranasal 1.0 mg/kg): NTR NTR
Brain Histology ([8]; male, intranasal 1.0 mg/kg): NTR NTR
Inflammation at Nostrils ([8]; male, intranasal 1.0 mg/kg every two days during 7 days): No No
Body Weight (Day 7) ([8]; male, intranasal 1.0 mg/kg): 252.26 ± 5.77
Behavior (Days 1–7) ([8]; male, intranasal 5.0 mg/kg): NTR NTR
Brain Histology ([8]; male, intranasal 5.0 mg/kg): NTR NTR
Inflammation at Nostrils ([8]; male, intranasal 5.0 mg/kg every two days during 7 days): No No
Body Weight (Day 7) ([8]; male, intranasal 5.0 mg/kg): 250.90 ± 5.68
Ratio of AUCIN/AUCiv ([9]; blood): 123%
Ratio of AUCIN/AUCiv ([9]; brain): 94%

NGF: therapeutic peptide delivered to the brain via the intranasal route, 120 aa
pHi [1]: 9.0

RGGRLAYLRRRWAVLGR [synB5, reference compound]
Transendothelial transport through the blood–brain barrier [5]: efficiently crossed the blood–brain barrier

RRLSYSRRRF [synB3, reference compound]
Transendothelial transport through the blood–brain barrier [5]: efficiently crossed the blood–brain barrier

TGF-β: therapeutic peptide delivered to the brain via the intranasal route, 112 aa
pHi [1]: 8.6

VIP: therapeutic peptide delivered to the brain via the intranasal route, 28 aa [reference compound]
pHi [1]: 9.8

Vasopressin [reference compound]
pHi [1]: 8.0
